Results as given in PubChem BioAssay AID256 (DTP/NCI, 2004).
Values joined by “and” are separate entries in the source; they are usually repeats but may differ in a detail not shown here. Equal entries are not always repeated. Inconclusive results and toxic doses are left out. How the source made its calls: active means survival T/C of 150% or more; inactive means T/C below 125% in these data.

Tested on: CD2F1 mice, L1210 leukemia ip, survival T/C
Experiment: NCI In Vivo Anticancer Drug Screen. Data for tumor model L1210 Leukemia (intraperitoneal) in CD2F1 (CDF1) mice
Settings: higher = longer survival
Method in brief: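 In this screen, transplantable tumors were grown in mice given either the compound or its vehicle. Results were expressed as the treated measurement relative to the control measurement.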

[1] = endpoint: mean survival time, dose: 100.0 mg/kg/injection, schedule: Q01DX009 (ip), vehicle: saline with Tween-80
[2] = endpoint: mean survival time, dose: 100.0 mg/kg/injection, schedule: Q04DX003 (ip), vehicle: saline with Tween-80
[3] = endpoint: mean survival time, dose: 200.0 mg/kg/injection, schedule: Q01DX009 (ip), vehicle: saline with Tween-80
[4] = endpoint: mean survival time, dose: 200.0 mg/kg/injection, schedule: Q04DX003 (ip), vehicle: saline with Tween-80
[5] = endpoint: mean survival time, dose: 400.0 mg/kg/injection, schedule: Q01DX009 (ip), vehicle: saline with Tween-80
[6] = endpoint: mean survival time, dose: 400.0 mg/kg/injection, schedule: Q04DX003 (ip), vehicle: saline with Tween-80
[7] = endpoint: mean survival time, dose: 100.0 mg/kg/injection, schedule: Q01DX001 (ip), vehicle: saline with Tween-80
[8] = endpoint: mean survival time, dose: 200.0 mg/kg/injection, schedule: Q01DX001 (ip), vehicle: saline with Tween-80
[9] = endpoint: mean survival time, dose: 400.0 mg/kg/injection, schedule: Q01DX001 (ip), vehicle: saline with Tween-80
[10] = endpoint: mean survival time, dose: 100.0 mg/kg/injection, schedule: Q01DX009 (ip), vehicle: saline sonified
[11] = endpoint: mean survival time, dose: 200.0 mg/kg/injection, schedule: Q01DX009 (ip), vehicle: saline sonified

Measured: T/C

COC(=O)c1ccccc1Nc1c2ccc(Cl)cc2nc2c1c(C)nn2C
inactive: [1] 96 % of control | [2] 101 % of control | [3] 100 % of control | [4] 95 % of control | [5] 97 % of control | [6] 106 % of control

Nc1ncnc2c1ncn2C1CC(O)C(CO)O1 (stereo not given)
inactive: endpoint: mean survival time, dose: 600.0 mg/kg/injection, schedule: Q03HX024 (ip), vehicle: saline with Tween-80 97 % of control | endpoint: mean survival time, dose: 900.0 mg/kg/injection, schedule: Q03HX024 (ip), vehicle: saline with Tween-80 103 % of control

O=c1[nH]c(=O)n(C2CC(O)C(CO)O2)cc1COCc1ccccc1 (stereo not given)
inactive: endpoint: mean survival time, dose: 100.0 mg/kg/injection, schedule: Q01DX005 (ip), vehicle: saline 95 % of control | endpoint: mean survival time, dose: 200.0 mg/kg/injection, schedule: Q01DX005 (ip), vehicle: saline 105 % of control and 97 % of control

O=[N+]([O-])c1ccccc1-c1ccc(Cl)cc1
inactive: [7] 88 % of control | [8] 91 % of control | [9] 92 % of control

CCCCN(CCCC)N=O
inactive: endpoint: mean survival time, dose: 25.0 mg/kg/injection, schedule: Q01DX009 (ip), vehicle: Klucel (hydroxypropylcellulose) (HPC) 96 % of control | endpoint: mean survival time, dose: 50.0 mg/kg/injection, schedule: Q01DX009 (ip), vehicle: Klucel (hydroxypropylcellulose) (HPC) 90 % of control | endpoint: mean survival time, dose: 100.0 mg/kg/injection, schedule: Q01DX009 (ip), vehicle: Klucel (hydroxypropylcellulose) (HPC) 98 % of control

O=C1C=CC(=O)N1c1ccc(Cl)cc1Br
inactive: endpoint: mean survival time, dose: 5.0 mg/kg/injection, schedule: Q04DX003 (ip), vehicle: saline with Tween-80 95 % of control | endpoint: mean survival time, dose: 10.0 mg/kg/injection, schedule: Q04DX003 (ip), vehicle: saline with Tween-80 89 % of control | endpoint: mean survival time, dose: 20.0 mg/kg/injection, schedule: Q04DX003 (ip), vehicle: saline with Tween-80 92 % of control

Cc1ccc(CC(=O)O)cc1C
inactive: [2] 98 % of control | [4] 95 % of control | [6] 98 % of control

CCOC(=O)CC1(C)C(=O)NC(=O)N1C(C)=O (stereo not given)
inactive: [7] 105 % of control | [1] 103 % of control | [8] 97 % of control | [3] 103 % of control | [9] 94 % of control | [5] 116 % of control

CC1SC(C)SC(C)S1 (stereo not given)
inactive: endpoint: mean survival time, dose: 75.0 mg/kg/injection, schedule: Q01DX001 (ip), vehicle: saline with Tween-80 98 % of control | endpoint: mean survival time, dose: 150.0 mg/kg/injection, schedule: Q01DX001 (ip), vehicle: saline with Tween-80 98 % of control | endpoint: mean survival time, dose: 300.0 mg/kg/injection, schedule: Q01DX001 (ip), vehicle: saline with Tween-80 102 % of control

CC(C)(C)N1C2CCCC21 (stereo not given)
inactive: endpoint: mean survival time, dose: 5.0 mg/kg/injection, schedule: Q01DX001 (ip), vehicle: saline 106 % of control | endpoint: mean survival time, dose: 5.0 mg/kg/injection, schedule: Q01DX009 (ip), vehicle: saline 102 % of control | endpoint: mean survival time, dose: 10.0 mg/kg/injection, schedule: Q01DX001 (ip), vehicle: saline 106 % of control | endpoint: mean survival time, dose: 10.0 mg/kg/injection, schedule: Q01DX009 (ip), vehicle: saline 102 % of control | endpoint: mean survival time, dose: 20.0 mg/kg/injection, schedule: Q01DX001 (ip), vehicle: saline 95 % of control | endpoint: mean survival time, dose: 20.0 mg/kg/injection, schedule: Q01DX009 (ip), vehicle: saline 100 % of control

CC(=O)N1c2cc3ccccc3cc2N(C(C)=O)c2cc3ccccc3cc21
inactive: [2] 103 % of control | [4] 103 % of control | [6] 107 % of control

COc1cc2c(c(OC)c1OC)-c1cccc(=O)cc1C(NC(C)=O)CC2 (stereo not given)
inactive: endpoint: median survival time, dose: 2.5 mg/kg/injection, schedule: Q01DX005 (ip), vehicle: saline 107 % of control | endpoint: median survival time, dose: 5.0 mg/kg/injection, schedule: Q01DX005 (ip), vehicle: saline 111 % of control | endpoint: median survival time, dose: 10.0 mg/kg/injection, schedule: Q01DX005 (ip), vehicle: saline 108 % of control and 111 % of control | endpoint: median survival time, dose: 20.0 mg/kg/injection, schedule: Q01DX005 (ip), vehicle: saline 117 % of control and 111 % of control | endpoint: median survival time, dose: 40.0 mg/kg/injection, schedule: Q01DX005 (ip), vehicle: saline 116 % of control and 111 % of control | endpoint: median survival time, dose: 80.0 mg/kg/injection, schedule: Q01DX005 (ip), vehicle: saline 122 % of control | endpoint: median survival time, dose: 160.0 mg/kg/injection, schedule: Q01DX005 (ip), vehicle: saline 122 % of control

O=C(/C=C1/OCCN1C(=O)Nc1ccccc1)Nc1ccccc1
inactive: [2] 107 % of control | [4] 103 % of control | [6] 97 % of control

COc1ccc(NC(C)=O)c(O)c1OC
inactive: [7] 95 % of control | endpoint: mean survival time, dose: 100.0 mg/kg/injection, schedule: Q04DX002 (ip), vehicle: saline with Tween-80 103 % of control | [8] 92 % of control | endpoint: mean survival time, dose: 200.0 mg/kg/injection, schedule: Q04DX002 (ip), vehicle: saline with Tween-80 106 % of control | [9] 95 % of control | endpoint: mean survival time, dose: 400.0 mg/kg/injection, schedule: Q04DX002 (ip), vehicle: saline with Tween-80 98 % of control

C1CN(CCSSCCN2CCOCC2)CCO1
inactive: endpoint: mean survival time, dose: 50.0 mg/kg/injection, schedule: Q01DX009 (ip), vehicle: saline sonified 100 % of control | [10] 100 % of control | [2] 104 % of control | [11] 103 % of control | [4] 104 % of control

Nc1ncnc2c1ncn2C1C=C(CO)C(O)C1O (stereo not given)
inactive: endpoint: mean survival time, dose: 0.25 mg/kg/injection, schedule: Q01DX009 (ip), vehicle: Klucel (hydroxypropylcellulose) (HPC) 122 % of control | endpoint: mean survival time, dose: 0.5 mg/kg/injection, schedule: Q01DX009 (ip), vehicle: Klucel (hydroxypropylcellulose) (HPC) 113 % of control and 123 % of control | endpoint: mean survival time, dose: 1.0 mg/kg/injection, schedule: Q01DX009 (ip), vehicle: Klucel (hydroxypropylcellulose) (HPC) 124 % of control | endpoint: mean survival time, dose: 4.0 mg/kg/injection, schedule: Q01DX009 (ip), vehicle: Klucel (hydroxypropylcellulose) (HPC) 122 % of control

CN(/N=N/c1nc[nH]c1C(N)=O)C(C)(C)C
inactive: endpoint: mean survival time, dose: 18.75 mg/kg/injection, schedule: Q01DX009 (ip), vehicle: Klucel (hydroxypropylcellulose) (HPC) 96 % of control | endpoint: mean survival time, dose: 37.5 mg/kg/injection, schedule: Q01DX009 (ip), vehicle: Klucel (hydroxypropylcellulose) (HPC) 110 % of control | endpoint: mean survival time, dose: 75.0 mg/kg/injection, schedule: Q01DX009 (ip), vehicle: Klucel (hydroxypropylcellulose) (HPC) 109 % of control | endpoint: mean survival time, dose: 150.0 mg/kg/injection, schedule: Q01DX009 (ip), vehicle: Klucel (hydroxypropylcellulose) (HPC) 109 % of control | endpoint: mean survival time, dose: 300.0 mg/kg/injection, schedule: Q01DX009 (ip), vehicle: Klucel (hydroxypropylcellulose) (HPC) 103 % of control

COc1ccc(/C(C)=N/N=C(\C)c2ccc(OC)cc2)cc1
inactive: endpoint: mean survival time, dose: 25.0 mg/kg/injection, schedule: Q04DX003 (ip), vehicle: saline with Tween-80 105 % of control | endpoint: mean survival time, dose: 50.0 mg/kg/injection, schedule: Q04DX003 (ip), vehicle: saline with Tween-80 102 % of control | [2] 102 % of control

O=C(Cl)C12CC3CC(CC(C3)C1)C2
inactive: endpoint: mean survival time, dose: 12.5 mg/kg/injection, schedule: Q01DX009 (ip), vehicle: other 94 % of control | endpoint: mean survival time, dose: 25.0 mg/kg/injection, schedule: Q01DX009 (ip), vehicle: other 94 % of control | endpoint: mean survival time, dose: 50.0 mg/kg/injection, schedule: Q01DX009 (ip), vehicle: other 91 % of control | endpoint: mean survival time, dose: 100.0 mg/kg/injection, schedule: Q01DX009 (ip), vehicle: other 91 % of control

CCCc1nc2ccccc2c(=O)n1/N=C/c1ccsc1
inactive: [10] 100 % of control | [11] 102 % of control | endpoint: mean survival time, dose: 400.0 mg/kg/injection, schedule: Q01DX009 (ip), vehicle: saline sonified 93 % of control
